In test [1] the target is Tyrosine-protein kinase Fgr (Homo sapiens) (UniProt P09769). The conditions noted are these: Compound concentration 1000.0 nM.
For test [2], the target named is Ribosomal protein S6 kinase alpha-5 (Homo sapiens) (UniProt O75582). The conditions noted are these: Compound concentration 1000.0 nM.
The test system of test [3] is Tyrosine-protein kinase ABL1 (Homo sapiens), P00519 [H396P]. The conditions noted are these: Compound concentration 1000.0 nM.
Test [4] addresses Tyrosine-protein kinase Fyn (Homo sapiens) (UniProt P06241). The settings on record: Compound concentration 1000.0 nM.
Test [5] addresses Casein kinase I isoform delta (Homo sapiens) (UniProt P48730). The settings on record: Compound concentration 1000.0 nM.
Test [6] deals with Ribosomal protein S6 kinase alpha-1 (Homo sapiens) (UniProt Q15418). The settings on record: Compound concentration 1000.0 nM.
Test [7] concerns Epidermal growth factor receptor (Homo sapiens), P00533 [UNDEFINED MUTATION]. The conditions noted are these: Compound concentration 1000.0 nM.
Test [8] has as its target Cyclin-dependent kinase-like 5 (Homo sapiens) (UniProt O76039). The settings on record: Compound concentration 1000.0 nM.
Test [9] deals with Calcium/calmodulin-dependent protein kinase type II subunit gamma (Homo sapiens) (UniProt Q13555). The conditions noted are these: Compound concentration 1000.0 nM.
Test [10] has as its target Receptor tyrosine-protein kinase erbB-3 (Homo sapiens) (UniProt P21860). The settings on record: Compound concentration 1000.0 nM.
Test [11] addresses T1, Serine/threonine-protein kinase D3 (Homo sapiens) (UniProt O94806).
T1 sequence (whole entry): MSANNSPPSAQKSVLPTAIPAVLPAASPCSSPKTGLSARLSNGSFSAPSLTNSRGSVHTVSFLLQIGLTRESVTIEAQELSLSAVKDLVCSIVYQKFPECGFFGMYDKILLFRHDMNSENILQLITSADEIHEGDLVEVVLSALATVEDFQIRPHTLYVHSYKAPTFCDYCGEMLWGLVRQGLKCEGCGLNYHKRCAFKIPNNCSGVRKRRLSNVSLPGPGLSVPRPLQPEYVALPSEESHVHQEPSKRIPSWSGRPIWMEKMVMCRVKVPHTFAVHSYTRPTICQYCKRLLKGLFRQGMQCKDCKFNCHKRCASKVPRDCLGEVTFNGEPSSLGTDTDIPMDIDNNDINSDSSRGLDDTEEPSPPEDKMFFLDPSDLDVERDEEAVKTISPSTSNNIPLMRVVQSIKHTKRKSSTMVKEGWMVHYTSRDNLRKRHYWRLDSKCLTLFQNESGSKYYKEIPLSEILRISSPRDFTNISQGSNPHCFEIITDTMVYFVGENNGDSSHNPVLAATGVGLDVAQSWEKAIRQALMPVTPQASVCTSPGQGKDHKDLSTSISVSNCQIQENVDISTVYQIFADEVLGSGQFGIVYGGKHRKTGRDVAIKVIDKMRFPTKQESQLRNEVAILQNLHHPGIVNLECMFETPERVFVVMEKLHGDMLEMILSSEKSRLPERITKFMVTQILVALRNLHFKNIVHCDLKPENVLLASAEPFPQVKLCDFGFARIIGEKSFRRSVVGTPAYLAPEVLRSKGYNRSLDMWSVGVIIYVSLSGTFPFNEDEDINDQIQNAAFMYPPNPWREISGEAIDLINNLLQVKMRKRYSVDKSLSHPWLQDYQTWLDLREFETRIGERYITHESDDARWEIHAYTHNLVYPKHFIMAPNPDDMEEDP
The conditions noted are these: Compound concentration 1000.0 nM.

The target in test [12] is RAF proto-oncogene serine/threonine-protein kinase (Homo sapiens) (UniProt P04049). The conditions noted are these: Compound concentration 1000.0 nM.
For test [13], the target named is Calcium/calmodulin-dependent protein kinase type II subunit delta (Homo sapiens) (UniProt Q13557). The conditions noted are these: Compound concentration 1000.0 nM.
The target in test [14] is T2, Rhodopsin kinase GRK7 (Homo sapiens) (UniProt Q8WTQ7).
T2 sequence (whole entry): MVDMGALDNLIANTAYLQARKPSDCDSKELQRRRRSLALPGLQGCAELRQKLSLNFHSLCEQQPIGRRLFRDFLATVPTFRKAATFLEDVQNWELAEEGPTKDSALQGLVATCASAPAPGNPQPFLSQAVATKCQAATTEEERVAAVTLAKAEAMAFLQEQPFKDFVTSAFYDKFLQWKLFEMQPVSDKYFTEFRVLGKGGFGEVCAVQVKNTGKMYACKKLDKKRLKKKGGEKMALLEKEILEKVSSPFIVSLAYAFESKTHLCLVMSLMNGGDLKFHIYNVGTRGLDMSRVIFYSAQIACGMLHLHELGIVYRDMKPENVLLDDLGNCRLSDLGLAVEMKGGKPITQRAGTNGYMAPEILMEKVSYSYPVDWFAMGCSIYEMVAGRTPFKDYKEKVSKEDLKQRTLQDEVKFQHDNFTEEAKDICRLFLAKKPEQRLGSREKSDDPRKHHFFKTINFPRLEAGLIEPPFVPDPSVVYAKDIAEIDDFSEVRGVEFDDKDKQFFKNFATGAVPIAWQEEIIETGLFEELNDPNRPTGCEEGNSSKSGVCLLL
The settings on record: Compound concentration 1000.0 nM.

Test [15] has as its target Cyclin-dependent kinase 13 (Homo sapiens) (UniProt Q14004). The settings on record: Compound concentration 1000.0 nM.
For test [16], the target named is D(1A) dopamine receptor (Homo sapiens) (UniProt P21728). The conditions noted are these: Compound concentration 10.0 uM.
Test [17] addresses Serine/threonine-protein kinase WNK1 (Homo sapiens) (UniProt Q9H4A3). The conditions noted are these: Compound concentration 1000.0 nM.
Test [18] addresses T3, TGF-beta receptor type-1 (Homo sapiens) (UniProt P36897).
T3 sequence (whole entry): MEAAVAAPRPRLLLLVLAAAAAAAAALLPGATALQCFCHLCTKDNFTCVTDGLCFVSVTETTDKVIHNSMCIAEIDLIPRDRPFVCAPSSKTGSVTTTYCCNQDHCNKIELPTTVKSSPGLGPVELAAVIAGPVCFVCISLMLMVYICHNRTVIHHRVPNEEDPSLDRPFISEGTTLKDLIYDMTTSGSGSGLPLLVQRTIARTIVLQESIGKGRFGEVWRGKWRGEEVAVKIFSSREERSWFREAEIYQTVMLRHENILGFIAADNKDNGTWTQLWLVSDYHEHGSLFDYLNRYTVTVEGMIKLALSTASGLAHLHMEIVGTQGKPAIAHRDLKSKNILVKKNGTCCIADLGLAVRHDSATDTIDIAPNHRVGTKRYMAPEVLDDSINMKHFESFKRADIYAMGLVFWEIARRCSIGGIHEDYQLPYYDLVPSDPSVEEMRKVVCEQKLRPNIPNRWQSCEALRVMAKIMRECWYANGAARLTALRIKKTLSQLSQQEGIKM
The conditions noted are these: Compound concentration 1000.0 nM.

The target in test [19] is SRSF protein kinase 3 (Homo sapiens) (UniProt Q9UPE1). The conditions noted are these: Compound concentration 1000.0 nM.
Sequence of SRSF protein kinase 3 (Homo sapiens) (Q9UPE1 whole entry): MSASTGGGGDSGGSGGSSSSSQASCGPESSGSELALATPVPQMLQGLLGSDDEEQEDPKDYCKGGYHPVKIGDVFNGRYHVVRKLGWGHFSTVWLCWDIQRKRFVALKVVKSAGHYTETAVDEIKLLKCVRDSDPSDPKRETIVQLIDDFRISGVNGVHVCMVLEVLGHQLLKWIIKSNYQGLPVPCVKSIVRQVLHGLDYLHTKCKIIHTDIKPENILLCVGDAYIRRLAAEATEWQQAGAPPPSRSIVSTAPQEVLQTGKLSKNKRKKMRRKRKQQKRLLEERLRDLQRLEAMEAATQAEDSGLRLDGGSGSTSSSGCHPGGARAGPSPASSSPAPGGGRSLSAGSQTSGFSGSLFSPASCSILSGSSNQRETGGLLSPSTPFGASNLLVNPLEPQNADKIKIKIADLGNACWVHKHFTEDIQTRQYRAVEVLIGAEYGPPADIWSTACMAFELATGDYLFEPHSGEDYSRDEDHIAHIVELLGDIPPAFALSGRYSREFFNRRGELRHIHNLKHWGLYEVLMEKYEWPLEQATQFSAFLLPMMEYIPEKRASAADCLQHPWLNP

Sequence of Calcium/calmodulin-dependent protein kinase type II subunit delta (Homo sapiens) (Q13557 whole entry): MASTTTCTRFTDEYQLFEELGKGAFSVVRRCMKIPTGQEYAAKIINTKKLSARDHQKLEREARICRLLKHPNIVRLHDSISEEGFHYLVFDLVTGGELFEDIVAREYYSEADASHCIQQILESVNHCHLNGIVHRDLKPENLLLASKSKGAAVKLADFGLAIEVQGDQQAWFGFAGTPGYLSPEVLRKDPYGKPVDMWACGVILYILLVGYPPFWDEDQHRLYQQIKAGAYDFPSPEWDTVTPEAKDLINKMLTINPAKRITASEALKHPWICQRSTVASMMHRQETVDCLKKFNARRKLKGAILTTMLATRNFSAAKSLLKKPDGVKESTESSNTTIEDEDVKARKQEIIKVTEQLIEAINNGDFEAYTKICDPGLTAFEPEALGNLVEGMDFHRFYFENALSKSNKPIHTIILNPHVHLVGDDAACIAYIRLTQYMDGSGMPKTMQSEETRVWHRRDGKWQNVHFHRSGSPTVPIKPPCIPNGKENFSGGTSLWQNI
Sequence of Tyrosine-protein kinase Fgr (Homo sapiens) (P09769 2-529 limits assumed): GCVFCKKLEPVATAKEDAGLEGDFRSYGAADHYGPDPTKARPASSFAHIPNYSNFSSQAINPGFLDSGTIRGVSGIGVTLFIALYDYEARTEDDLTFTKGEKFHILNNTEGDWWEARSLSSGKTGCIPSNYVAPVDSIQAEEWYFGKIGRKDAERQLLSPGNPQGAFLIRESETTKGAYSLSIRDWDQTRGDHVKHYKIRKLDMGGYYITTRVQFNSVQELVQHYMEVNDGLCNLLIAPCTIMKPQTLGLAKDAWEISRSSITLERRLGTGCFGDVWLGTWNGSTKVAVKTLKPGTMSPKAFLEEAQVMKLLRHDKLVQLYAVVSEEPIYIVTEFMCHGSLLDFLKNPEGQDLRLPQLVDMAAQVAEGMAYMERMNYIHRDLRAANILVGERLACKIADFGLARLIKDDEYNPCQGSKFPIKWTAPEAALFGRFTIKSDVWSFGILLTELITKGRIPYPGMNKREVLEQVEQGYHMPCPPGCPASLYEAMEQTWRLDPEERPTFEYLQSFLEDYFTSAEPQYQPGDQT
Sequence of Tyrosine-protein kinase Fyn (Homo sapiens) (P06241 2-537 limits assumed): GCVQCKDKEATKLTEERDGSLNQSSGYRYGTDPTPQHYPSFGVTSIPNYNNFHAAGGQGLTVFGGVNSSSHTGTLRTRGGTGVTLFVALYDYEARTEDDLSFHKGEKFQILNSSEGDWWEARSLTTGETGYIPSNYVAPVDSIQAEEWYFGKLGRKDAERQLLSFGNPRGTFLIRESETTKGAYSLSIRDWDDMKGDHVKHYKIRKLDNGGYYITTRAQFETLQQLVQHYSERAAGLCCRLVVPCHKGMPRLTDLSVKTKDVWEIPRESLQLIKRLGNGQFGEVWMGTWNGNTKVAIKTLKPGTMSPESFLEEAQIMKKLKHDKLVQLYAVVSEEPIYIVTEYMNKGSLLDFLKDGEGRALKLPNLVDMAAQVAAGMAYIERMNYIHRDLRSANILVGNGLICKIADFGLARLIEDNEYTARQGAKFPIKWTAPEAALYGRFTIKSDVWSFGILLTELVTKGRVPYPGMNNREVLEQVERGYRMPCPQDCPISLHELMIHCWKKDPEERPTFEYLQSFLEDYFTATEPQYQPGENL
Sequence of Ribosomal protein S6 kinase alpha-5 (Homo sapiens) (O75582 whole entry, looked up): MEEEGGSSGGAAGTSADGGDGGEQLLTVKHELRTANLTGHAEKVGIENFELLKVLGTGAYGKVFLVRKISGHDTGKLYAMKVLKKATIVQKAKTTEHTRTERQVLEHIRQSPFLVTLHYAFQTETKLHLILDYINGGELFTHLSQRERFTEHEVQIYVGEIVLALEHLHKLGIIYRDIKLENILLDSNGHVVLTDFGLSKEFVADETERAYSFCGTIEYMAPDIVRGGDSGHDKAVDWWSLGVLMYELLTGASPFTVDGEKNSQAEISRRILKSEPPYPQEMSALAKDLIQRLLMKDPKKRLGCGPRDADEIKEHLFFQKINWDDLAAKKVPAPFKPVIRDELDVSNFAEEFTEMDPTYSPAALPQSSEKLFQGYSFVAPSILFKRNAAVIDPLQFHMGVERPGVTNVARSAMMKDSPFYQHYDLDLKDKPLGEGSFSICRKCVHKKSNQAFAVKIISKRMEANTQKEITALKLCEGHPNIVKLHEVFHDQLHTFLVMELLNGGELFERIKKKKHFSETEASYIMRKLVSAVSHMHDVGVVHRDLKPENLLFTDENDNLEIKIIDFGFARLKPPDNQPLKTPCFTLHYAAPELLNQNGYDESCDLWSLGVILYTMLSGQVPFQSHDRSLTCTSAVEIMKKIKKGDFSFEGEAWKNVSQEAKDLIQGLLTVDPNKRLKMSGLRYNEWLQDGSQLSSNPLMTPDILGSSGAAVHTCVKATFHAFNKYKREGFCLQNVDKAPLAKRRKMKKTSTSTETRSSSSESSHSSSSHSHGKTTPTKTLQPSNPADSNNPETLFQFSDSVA
Sequence of RAF proto-oncogene serine/threonine-protein kinase (Homo sapiens) (P04049 whole entry): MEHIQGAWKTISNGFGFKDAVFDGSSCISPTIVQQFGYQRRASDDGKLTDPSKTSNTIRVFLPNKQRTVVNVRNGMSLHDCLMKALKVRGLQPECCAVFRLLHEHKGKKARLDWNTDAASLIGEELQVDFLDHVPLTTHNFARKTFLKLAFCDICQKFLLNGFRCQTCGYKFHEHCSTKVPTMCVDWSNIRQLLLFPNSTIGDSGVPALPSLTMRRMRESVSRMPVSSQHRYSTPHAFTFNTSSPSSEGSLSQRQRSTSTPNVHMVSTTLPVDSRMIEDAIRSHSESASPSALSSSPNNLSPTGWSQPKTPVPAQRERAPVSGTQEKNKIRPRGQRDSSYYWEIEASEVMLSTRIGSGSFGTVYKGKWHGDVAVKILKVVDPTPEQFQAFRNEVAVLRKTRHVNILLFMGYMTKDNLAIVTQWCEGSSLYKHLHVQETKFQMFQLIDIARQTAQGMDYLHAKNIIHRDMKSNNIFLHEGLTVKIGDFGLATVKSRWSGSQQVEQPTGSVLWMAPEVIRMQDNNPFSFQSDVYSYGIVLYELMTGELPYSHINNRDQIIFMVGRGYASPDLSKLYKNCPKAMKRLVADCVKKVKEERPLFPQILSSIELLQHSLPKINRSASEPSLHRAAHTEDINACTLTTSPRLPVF
Sequence of Casein kinase I isoform delta (Homo sapiens) (P48730 whole entry, looked up, canonical isoform): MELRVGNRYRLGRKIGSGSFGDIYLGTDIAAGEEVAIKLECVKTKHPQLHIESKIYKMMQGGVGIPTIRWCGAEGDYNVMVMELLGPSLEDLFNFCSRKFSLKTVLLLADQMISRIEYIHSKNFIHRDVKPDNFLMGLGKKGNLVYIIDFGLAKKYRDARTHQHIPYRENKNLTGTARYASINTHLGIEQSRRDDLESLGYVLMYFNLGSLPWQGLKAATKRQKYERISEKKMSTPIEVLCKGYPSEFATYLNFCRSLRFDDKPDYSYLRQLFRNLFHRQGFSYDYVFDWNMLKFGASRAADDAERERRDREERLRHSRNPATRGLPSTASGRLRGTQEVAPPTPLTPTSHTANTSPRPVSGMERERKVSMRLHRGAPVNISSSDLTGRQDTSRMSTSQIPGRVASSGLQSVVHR
Sequence of Calcium/calmodulin-dependent protein kinase type II subunit gamma (Homo sapiens) (Q13555 whole entry): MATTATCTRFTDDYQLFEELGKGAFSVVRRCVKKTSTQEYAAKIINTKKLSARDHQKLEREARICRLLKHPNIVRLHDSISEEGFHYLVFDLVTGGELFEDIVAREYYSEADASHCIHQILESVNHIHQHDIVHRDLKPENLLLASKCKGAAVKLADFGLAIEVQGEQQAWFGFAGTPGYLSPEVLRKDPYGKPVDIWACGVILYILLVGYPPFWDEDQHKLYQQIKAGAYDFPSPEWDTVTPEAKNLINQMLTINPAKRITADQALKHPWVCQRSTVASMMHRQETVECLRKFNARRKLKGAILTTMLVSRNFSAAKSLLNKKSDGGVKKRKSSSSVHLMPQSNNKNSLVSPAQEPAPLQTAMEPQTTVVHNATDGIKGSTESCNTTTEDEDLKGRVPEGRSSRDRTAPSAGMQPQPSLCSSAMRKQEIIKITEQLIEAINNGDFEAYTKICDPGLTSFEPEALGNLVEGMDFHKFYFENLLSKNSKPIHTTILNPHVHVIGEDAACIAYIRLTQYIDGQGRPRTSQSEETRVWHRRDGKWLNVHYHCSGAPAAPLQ
Sequence of D(1A) dopamine receptor (Homo sapiens) (P21728 whole entry): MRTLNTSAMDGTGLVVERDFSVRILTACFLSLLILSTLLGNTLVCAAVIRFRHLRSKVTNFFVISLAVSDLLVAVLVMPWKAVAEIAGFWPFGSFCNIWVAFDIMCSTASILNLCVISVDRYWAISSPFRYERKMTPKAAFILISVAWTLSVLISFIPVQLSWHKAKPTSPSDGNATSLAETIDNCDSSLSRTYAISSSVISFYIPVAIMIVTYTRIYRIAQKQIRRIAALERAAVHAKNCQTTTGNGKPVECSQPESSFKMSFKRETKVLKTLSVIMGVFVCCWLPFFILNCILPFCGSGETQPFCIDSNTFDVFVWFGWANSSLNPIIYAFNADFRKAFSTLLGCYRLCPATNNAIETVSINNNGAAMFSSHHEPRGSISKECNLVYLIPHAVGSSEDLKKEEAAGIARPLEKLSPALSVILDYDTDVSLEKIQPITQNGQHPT

As usually defined, the residual activity is the activity still measured, relative to the control. By inhibition is commonly meant the drop in the measured response relative to a control, in per cent. Turning to `CN(C)C(=O)Cn1cc(-c2nc(C3(c4ccc(-c5cnc(N)nc5)cc4)CC3)no2)cn1` [BI 0153], the residual activity is 100% in test [1]; 98% in [2]; 100% in test [3]; 100% in test [4]; 100% in test [5]; 100% in test [6]. For the same compound, the residual activity in test [7] is 79%; in [8], 82%; in test [9] it was 98%; in [10], 87%; in [11] it was 92%; in test [12], 100%. Moreover, the residual activity in test [13] was 99%; in test [14], 84%; in test [15], 91%; in test [17], 97%; in [18] it was 97%; in [19], 100%. Moreover, the inhibition in test [16] is -6.69%.

On to `CN(C)C(=O)Cn1cc(-c2nc([C@@](C)(c3ccc(-c4cnc(N)nc4)cc3)C3CC3)no2)cn1` [BI 665915], for which the residual activity is 100% in test [1]; 93% in [2]; 76% in test [3]; 86% in [4]; 96% in test [5]; 99% in test [6]. The residual activity in test [7] was 75%; in test [8] it was 89%; in test [9], 100%; in [10], 95%; in [11] it was 100%; in test [12] it was 100%. Moreover, the residual activity in test [13] was 100%; in test [14], 0%; in [15], 83%; in test [17], 94%; in test [18], 100%; in [19], 85%. Also, the inhibition in test [16] is 4.55%.
